Laboratory results taken from ChEMBL document CHEMBL5052847, “Identification of compounds that inhibit stress granule formation and tau aggregation by targeting tia1” (2021).
Activity calls are given as the source filed them. The calls are words filed in the database; no cut-off is given here.

Legend:
[1] = species: Homo sapiens; test: Inhibition of recombinant TIA1 (unknown origin) multimerization measured by FRET assay
[2] = system: HT-22; test: Inhibition of TIA1 endogenously expressed in mouse HT-22 cells at 25 to 100 uM assessed as sodium arsenite-induced stress granule formation and measured by FRET assay relative to control; format: cell-based; conditions: dose 25-100 µM

Row | inhibition [1] | Compound | inhibition [2]
1 | Active | CN(C)S(=O)(=O)c1cccc(-n2sc3ccccc3c2=O)c1 | Active
2 | Active | Cc1cccc(-n2sc3ccccc3c2=O)c1 | Active
3 | Active | O=c1c2ccccc2sn1-c1ccc(Cl)c(S(=O)(=O)N2CCOCC2)c1 | Active
4 | Active | Cc1ccc(C)c(-n2sc3cc(F)ccc3c2=O)c1 | Active

Further lines, the molecule ahead of its results:

Row | Compound | inhibition [1] | inhibition [2]
5 | CCN(CC)S(=O)(=O)c1cccc(-n2sc3ccccc3c2=O)c1 | Active | Active
6 | O=c1c2ccccc2sn1-c1cccc(S(=O)(=O)N2CCCCCC2)c1 | Active | Active
7 | O=C(O)c1ccccc1NS(=O)(=O)c1cccc(-n2sc3ccccc3c2=O)c1 | Active | Active
8 | O=c1c2ccccc2sn1-c1ccc(Cl)cc1 | Active | Active
9 | O=c1c2ccccc2sn1-c1nccs1 | Active | Active
10 | O=c1c2ccccc2sn1-c1cccc(S(=O)(=O)Nc2ccc(Cl)cc2)c1 | Active | Active
11 | O=C1c2ccccc2S(=O)(=O)N1c1ccccc1F | Active | Active
